Data: PubChem BioAssay AID2060600 (Molecular Pharmacology Branch, DTP, NCI, 2025)

Test system: 996289-038-R-J1-PDC complex spheroid viability
Test: Anticancer human tumor 996289-038-R-J1-PDC patient-derived colon adenocarcinoma cell line growth inhibition [CLK]
Settings: for IC50: curve of first compound; for viability, T/C: stronger effect = lower value; active means viability on the fitted dose curve at most 10% of control; inactive means the rest
Method in brief: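 Patient-derived tumor cells grown as complex spheroids with HUVEC endothelial cells and mesenchymal stem cells, treated with drug combinations. Concentrations descend in half-log steps from near clinical Cmax, or from 10 microM if Cmax unknown.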

[1] = second compound 0.0316 µM, first compound 0.0316 µM
[2] = second compound 0.0316 µM, first compound 0.1 µM
[3] = second compound 0.0316 µM, first compound 0.316 µM
[4] = second compound 0.0316 µM, first compound 1 µM
[5] = second compound 0.1 µM, first compound 0.0316 µM
[6] = second compound 0.1 µM, first compound 0.1 µM
[7] = second compound 0.1 µM, first compound 0.316 µM
[8] = second compound 0.1 µM, first compound 1 µM
[9] = second compound 0.316 µM, first compound 0.0316 µM
[10] = second compound 0.316 µM, first compound 0.1 µM
[11] = second compound 0.316 µM, first compound 0.316 µM
[12] = second compound 0.316 µM, first compound 1 µM
[13] = second compound 1 µM, first compound 0.0316 µM
[14] = second compound 1 µM, first compound 0.1 µM
[15] = second compound 1 µM, first compound 0.316 µM
[16] = second compound 1 µM, first compound 1 µM
[17] = second compound 3.16 µM, first compound 0.0316 µM
[18] = second compound 3.16 µM, first compound 0.1 µM
[19] = second compound 3.16 µM, first compound 0.316 µM
[20] = second compound 3.16 µM, first compound 1 µM
[21] = second compound 10 µM, first compound 0.0316 µM
[22] = second compound 10 µM, first compound 0.1 µM
[23] = second compound 10 µM, first compound 0.316 µM
[24] = second compound 10 µM, first compound 1 µM
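Further: spheroids exposed to the agents for 7 days before readout.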

CCN1CCN(Cc2ccc(Nc3ncc(F)c(-c4cc(F)c5nc(C)n(C(C)C)c5c4)n3)nc2)CC1 + CN1CCN(c2cc(C(=O)Nc3cc4cc(-c5cnn(C)c5)ccc4cn3)ccn2)CC1
< 3.16 nM: IC50 (second compound 1 µM) | IC50 (second compound 3.16 µM) | IC50 (second compound 10 µM)
inactive: viability, T/C (second compound 0.0316 µM, first compound 0.00316 µM) 95.8% | viability, T/C (second compound 0.0316 µM, first compound 0.01 µM) 97.3% | viability, T/C [1] 82.6% | viability, T/C [2] 82.5% | viability, T/C [3] 79.7% | viability, T/C [4] 76.8% | viability, T/C (second compound 0.1 µM, first compound 0.00316 µM) 101% | viability, T/C (second compound 0.1 µM, first compound 0.01 µM) 85.7% | viability, T/C [5] 86.4% | viability, T/C [6] 81.4% | viability, T/C [7] 68.8% | viability, T/C [8] 71% | viability, T/C (second compound 0.316 µM, first compound 0.00316 µM) 64.8% | viability, T/C (second compound 0.316 µM, first compound 0.01 µM) 62.5% | viability, T/C [9] 58.7% | viability, T/C [10] 53.4% | viability, T/C [11] 51.3% | viability, T/C [12] 50.8%
active: viability, T/C (second compound 1 µM, first compound 0.00316 µM) 6.12% | viability, T/C (second compound 1 µM, first compound 0.01 µM) 6.14% | viability, T/C [13] 7.95% | viability, T/C [14] 8.35% | viability, T/C [15] 10.1% | viability, T/C [16] 2.91% | viability, T/C (second compound 3.16 µM, first compound 0.00316 µM) 1.14% | viability, T/C (second compound 3.16 µM, first compound 0.01 µM) 1.05% | viability, T/C [17] 0.74% | viability, T/C [18] 1.08% | viability, T/C [19] 1.2% | viability, T/C [20] 2.28% | viability, T/C (second compound 10 µM, first compound 0.00316 µM) 0.58% | viability, T/C (second compound 10 µM, first compound 0.01 µM) 0.55% | viability, T/C [21] 0.57% | viability, T/C [22] 0.88% | viability, T/C [23] 0.37% | viability, T/C [24] 0.53%
753 nM: IC50 (second compound 0.316 µM)
> 1000 nM: IC50 (second compound 0.0316 µM) | IC50 (second compound 0.1 µM)

COC1C=CCC(C)C(C)S(=O)(=O)NC(=O)c2ccc3c(c2)N(CC2CCC21)CC1(CCCc2cc(Cl)ccc21)CO3 (centres undefined) + CNC(=O)c1ccc(Nc2nc(OC3CCCC3)c3c(-c4ccc5nc(C)oc5c4)c[nH]c3n2)c(OC)c1
2940 nM: IC50 (second compound 0.316 µM)
519 nM: IC50 (second compound 10 µM)
inactive: viability, T/C [1] 131% | viability, T/C [2] 119% | viability, T/C [3] 109% | viability, T/C [4] 92.1% | viability, T/C (second compound 0.0316 µM, first compound 3.16 µM) 74.6% | viability, T/C (second compound 0.0316 µM, first compound 10 µM) 37.2% | viability, T/C [5] 124% | viability, T/C [6] 117% | viability, T/C [7] 109% | viability, T/C [8] 85.9% | viability, T/C (second compound 0.1 µM, first compound 3.16 µM) 72.2% | viability, T/C (second compound 0.1 µM, first compound 10 µM) 39.1% | viability, T/C [9] 91.1% | viability, T/C [10] 78.1% | viability, T/C [11] 74.3% | viability, T/C [12] 57.5% | viability, T/C (second compound 0.316 µM, first compound 3.16 µM) 52.2% | viability, T/C (second compound 0.316 µM, first compound 10 µM) 36.4% | viability, T/C [13] 71.3% | viability, T/C [14] 65.2% | viability, T/C [15] 58.8% | viability, T/C [16] 49.4% | viability, T/C (second compound 1 µM, first compound 3.16 µM) 45.6% | viability, T/C (second compound 1 µM, first compound 10 µM) 34.4% | viability, T/C [17] 70.1% | viability, T/C [18] 59% | viability, T/C [19] 52.2% | viability, T/C [20] 45.7% | viability, T/C (second compound 3.16 µM, first compound 3.16 µM) 40.4% | viability, T/C (second compound 3.16 µM, first compound 10 µM) 33.1% | viability, T/C [21] 59.3% | viability, T/C [22] 54.4% | viability, T/C [23] 53% | viability, T/C [24] 45.9% | viability, T/C (second compound 10 µM, first compound 3.16 µM) 43.2% | viability, T/C (second compound 10 µM, first compound 10 µM) 34%
1180 nM: IC50 (second compound 1 µM)
6740 nM: IC50 (second compound 0.0316 µM)
6730 nM: IC50 (second compound 0.1 µM)
466 nM: IC50 (second compound 3.16 µM)
